Assay results published in patent US11884647B2, “Compounds and methods for targeting pathogenic blood vessels” (THE REGENTS OF THE UNIVERSITY OF CALIFORNIA, priority 2019, dated 2024).
“Also recorded” adds a separate entry of the source.

Tests used:
[1] = system: choroidal endothelial cells; assay: Ex vivo model of choroidal angiogenesis (choroidal neovascularization); type: cell-based; conditions: 10 μM; for effect on new endothelial cells in choroidal angiogenesis: treatment starts after 7 days of angiogenesis, lasts two days, live/dead staining
Protocol: FIG. 2A-E. Comparison of compound 369 with the current anti-angiogenic drug in an ex vivo model of choroidal angiogenesis. A. A schematic diagram of the timeframe of the experiment. […] Treatment lasts for two days before cell death and survival are analyzed. B. Control experiment without any drug treatment at day 7. The white circle in the middle delineates the piece of choroid/RPE that was embedded to initiate neovascularization. C. […] Eylea was added at 10 μM. […] The compound was added at 10 μM. In B-D, green cells are live cells and red cells are dead cells. E. Quantitation of the experiments described in B-D. The amount of new endothelial cells in the untreated control is defined as 100%.

[2] = system: tumor endothelial cells (LL/2 lung cancer tumor); assay: Lung LL2 ex vivo model of tumor angiogenesis; type: cell-based, mouse; conditions: for cytotoxicity at 20 µM / cytotoxicity at 40 µM: Mus musculus, Endothelial cell, 48 h, read-out: Cell death; for Cell death: Lung LL2 ex vivo, Conc. 40 μm, drug treatment two days
In short: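 Read-out is live/dead fluorescence imaging (fluorescein diacetate green, propidium iodide red, 10 min at 37° C) at 2×, taken e.g. 48 h after drug addition. Fragments of mouse LL2 tumor are cultured in Matrigel with endothelial growth medium, usually 4 days, until new endothelial cells grow out, then treated.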

[3] = system: tumor endothelial cells (CT26.CL25 colon cancer tumor); assay: Colon CT26 ex vivo model of tumor angiogenesis; type: cell-based; conditions: Mus musculus, CT26, 48 h, read-out: Cell death
In short: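 Explant pieces of CT26 tumor (about 0.075 mm^3) were embedded in Matrigel and grown in endothelial growth medium at 37 °C for about 7 days until endothelial outgrowth appeared, then treated. Cell death was read about 48 h after drug addition by fluorescein diacetate (live) and propidium iodide (dead) staining with red/green imaging.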

With “Eylea: "The most commonly used drug for choroidal neovascularization, Eylea, can inhibit choroidal endothelial cell growth (as expected of an antiangiogenesis drug)" [reference compound]” the “effect on new endothelial cells in choroidal angiogenesis” value [1] was “can inhibit choroidal endothelial cell growth”.
With CCCCCCCCCCCCCCOc1ccc(S(=O)(=O)c2cnc3ccc([S+](C)[O-])cc3c2N2CCC(N3CCC(N4CCN(CCO)CC4)CC3)CC2)cc1F (stereo not drawn) [compound 369, 2-(4-(1′-(3-((3-fluoro-4-(tetradecyloxy)phenyl)sulfonyl)-6-(methylsulfinyl)quinolin-4-yl)-[1,4′-bipiperidin]-4-yl)piperazin-1-yl)ethanol] the “effect on new endothelial cells in choroidal angiogenesis” value [1] was “can kill the new endothelial cells in choroidal angiogenesis”, the “effect on healthy tissue (choroid and RPE)” value ([1]; two days treatment) was “Choroid and RPE are still alive after the treatment; also recorded: without affecting the healthy tissue” and the cytotoxicity at 20 µM [2] was 20%.
Compound CCCCOc1ccc(S(=O)(=O)c2cnc3ccc([S+](C)[O-])cc3c2N2CCC(N3CCCN(C)CC3)CC2)cc1 (stereo not drawn) [compound 241, 3-((4-butoxyphenyl)sulfonyl)-4-(4-(4-methyl-1,4-diazepan-1-yl)piperidin-1-yl)-6-(methylsulfinyl)quinoline] has a cytotoxicity at 10 µM [3] of 0% and a cytotoxicity at 40 µM [2] of 40%.
For CCCCN(CCCC)c1c(S(=O)(=O)c2ccc(OC)cc2)cnc2ccc(C(=O)OCC)cc12 [compound 155, ethyl 4-(dibutylamino)-3-((4-methoxyphenyl)sulfonyl)quinoline-6-carboxylate], the cytotoxicity at 40 µM [3] was 20% and the Cell death [2] was 80%.
CCc1ccc(S(=O)(=O)c2cnc3ccc(OC(F)(F)F)cc3c2N2CCCC(O)C2)cc1 (stereo not drawn) [compound 82, 1-(3-((4-ethylphenyl)sulfonyl)-6-(trifluoromethoxy)quinolin-4-yl)piperidin-3-ol] was tested, and the cytotoxicity at 40 µM [3] was 10% and the cytotoxicity at 40 µM [2] was 60%.
In the case of COc1ccc(S(=O)(=O)c2cnc3ccc([N+](=O)[O-])cc3c2-n2cncn2)cc1 [compound 97, 3-((4-methoxyphenyl)sulfonyl)-6-nitro-4-(1H-1,2,4-triazol-1-yl)quinoline], the cytotoxicity at 10 µM [3] is reported as 100% and the cytotoxicity at 20 µM [2] is reported as 50%.
CCCCOc1ccc(S(=O)(=O)c2cnc3ccc(C(=O)NCCO)cc3c2N2CCC(N3CCCCC3)CC2)cc1 [compound 202, 4-([1,4′-bipiperidin]-1′-yl)-3-((4-butoxyphenyl)sulfonyl)-N-(2-hydroxyethyl)quinoline-6-carboxamide] was tested, and the cytotoxicity at 40 µM [3] was 10% and the Cell death [2] was 30%.
With COc1ccc(S(=O)(=O)c2cnc3ccc(CC#N)cc3c2-n2cncn2)cc1 [compound 98, 2-(3-((4-methoxyphenyl)sulfonyl)-4-(1H-1,2,4-triazol-1-yl)quinolin-6-yl)acetonitrile] the cytotoxicity at 10 µM [3] was 50% and the cytotoxicity at 20 µM [2] was 10%.
CCCCOc1ccc(S(=O)(=O)c2cnc3ccc([S+](C)[O-])cc3c2N2CCC(N3CCC(O)(c4ccccc4)CC3)CC2)cc1 (stereo not drawn) [compound 238, 1′-(3-((4-butoxyphenyl)sulfonyl)-6-(methylsulfinyl)quinolin-4-yl)-4-phenyl-[1,4′-bipiperidin]-4-ol] was tested, and the cytotoxicity at 10 µM [3] was 10% and the cytotoxicity at 40 µM [2] was 100%.
For COc1ccc(S(=O)(=O)c2cnc3ccc(OC(F)(F)F)cc3c2NN2CCN(C)CC2)cc1OC [compound 88, 3-((3,4-dimethoxyphenyl)sulfonyl)-N-(4-methylpiperazin-1-yl)-6-(trifluoromethoxy)quinolin-4-amine], the cytotoxicity at 40 µM [3] was 60% and the cytotoxicity at 40 µM [2] was 70%.
With CCc1ccc(S(=O)(=O)c2cnc3ccc(C(=O)O)cc3c2N2CCCN(C)CC2)cc1 [compound 66, 3-((4-ethylphenyl)sulfonyl)-4-(4-methyl-1,4-diazepan-1-yl)quinoline-6-carboxylic acid] the cytotoxicity at 40 µM [3] was 0% and the cytotoxicity at 40 µM [2] was 10%.
CCc1ccc(S(=O)(=O)c2cnc3ccc(OC(F)(F)F)cc3c2N2CCC(N3CCCC3)CC2)cc1 [compound 46, 3-((4-ethylphenyl)sulfonyl)-4-(4-(pyrrolidin-1-yl)piperidin-1-yl)-6-(trifluoromethoxy)quinoline] was tested, and the cytotoxicity at 40 µM [3] was 100% and the cytotoxicity at 40 µM [2] was 100%.
CCCCOc1ccc(S(=O)(=O)c2cnc3ccc(C(=O)OCC)cc3c2N2CCC(N3CCOCC3)CC2)cc1 [compound 212, ethyl 3-((4-butoxyphenyl)sulfonyl)-4-(4-morpholinopiperidin-1-yl)quinoline-6-carboxylate] was tested, and the cytotoxicity at 40 µM [3] was 10% and the cytotoxicity at 40 µM [2] was 50%.
COc1ccc(S(=O)(=O)c2cnc3ccc(OC(F)(F)F)cc3c2N2CCCC(O)C2)cc1OC (stereo not drawn) [compound 70, 1-(3-((3,4-dimethoxyphenyl)sulfonyl)-6-(trifluoromethoxy)quinolin-4-yl)piperidin-3-ol] showed a cytotoxicity at 40 µM [3] of 10% and a cytotoxicity at 40 µM [2] of 40%.
In the case of COc1ccc(S(=O)(=O)c2cnc3ccc(SC)cc3c2N2CCC(N3CCCCC3)CC2)cc1OC [compound 121, 4-([1,4′-bipiperidin]-1′-yl)-3-((3,4-dimethoxyphenyl)sulfonyl)-6-(methylthio)quinoline], the cytotoxicity at 40 µM [3] is reported as 40% and the cytotoxicity at 40 µM [2] is reported as 50%.
O=[N+]([O-])c1ccc(S(=O)(=O)c2cnc3ccc(OC(F)(F)F)cc3c2N2CCC(N3CCCCC3)CC2)cc1 [compound 59, 4-([1,4′-bipiperidin]-1′-yl)-3-((4-nitrophenyl)sulfonyl)-6-(trifluoromethoxy)quinoline] showed a cytotoxicity at 40 µM [3] of 50% and a cytotoxicity at 40 µM [2] of 40%.
CCCCOc1ccc2ncc(S(=O)(=O)c3ccc(OC)c(OC)c3)c(N3CCC(N4CCCCC4)CC3)c2c1 [compound 116, 4-([1,4′-bipiperidin]-1′-yl)-6-butoxy-3-((3,4-dimethoxyphenyl)sulfonyl)quinoline] showed a cytotoxicity at 20 µM [3] of 50% and a cytotoxicity at 20 µM [2] of 100%.
Compound CCc1ccc(S(=O)(=O)c2cnc3ccc(OC(F)(F)F)cc3c2N2CCCN(CCN(CC)CC)CC2)cc1 [compound 100, N,N-diethyl-2-(4-(3-((4-ethylphenyl)sulfonyl)-6-(trifluoromethoxy)quinolin-4-yl)-1,4-diazepan-1-yl)ethan-1-amine] has a cytotoxicity at 40 µM [3] of 100% and a cytotoxicity at 40 µM [2] of 100%.
CCN(CC)c1c(S(=O)(=O)c2ccc(OC)c(OC)c2)cnc2ccc(OC(F)(F)F)cc12 [compound 68, 3-((3,4-dimethoxyphenyl)sulfonyl)-N,N-diethyl-6-(trifluoromethoxy)quinolin-4-amine] was tested, and the cytotoxicity at 40 µM [3] was 50% and the cytotoxicity at 40 µM [2] was 80%.
CCOC(=O)c1ccc2ncc(S(=O)(=O)c3ccc(CC)cc3)c(N3CCCN(C)CC3)c2c1 [compound 63, ethyl 3-((4-ethylphenyl)sulfonyl)-4-(4-methyl-1,4-diazepan-1-yl)quinoline-6-carboxylate] showed a cytotoxicity at 40 µM [3] of 70% and a cytotoxicity at 40 µM [2] of 50%.
CCCCOc1ccc(S(=O)(=O)c2cnc3ccc(C(=O)OCC)cc3c2N2CCC(N3CCC(c4ccccc4)CC3)CC2)cc1 [compound 215, ethyl 3-((4-butoxyphenyl)sulfonyl)-4-(4-phenyl-[1,4′-bipiperidin]-1′-yl)quinoline-6-carboxylate] gave a cytotoxicity at 40 µM [3] of 20% and a Cell death [2] of 30%.
With CCc1ccc(S(=O)(=O)c2cnc3ccc(OC(F)(F)F)cc3c2N2CCCN(CC(=O)O)CC2)cc1 [compound 42, 2-(4-(3-((4-ethylphenyl)sulfonyl)-6-(trifluoromethoxy)quinolin-4-yl)-1,4-diazepan-1-yl)acetic acid] the cytotoxicity at 40 µM [3] was 0% and the cytotoxicity at 40 µM [2] was 30%.
CCc1ccc(S(=O)(=O)c2cnc3ccc(OC(F)(F)F)cc3c2-n2ccnn2)cc1 [compound 110, 3-((4-ethylphenyl)sulfonyl)-4-(1H-1,2,3-triazol-1-yl)-6-(trifluoromethoxy)quinoline] showed a cytotoxicity at 40 µM [3] of 10% and a cytotoxicity at 20 µM [2] of 95%.
CCc1ccc(S(=O)(=O)c2cnc3ccc(OC(F)(F)F)cc3c2NN2CCN(C)CC2)cc1 [compound 50, 3-((4-ethylphenyl)sulfonyl)-N-(4-methylpiperazin-1-yl)-6-(trifluoromethoxy)quinolin-4-amine] was tested, and the cytotoxicity at 40 µM [3] was 100% and the cytotoxicity at 40 µM [2] was 90%.
COc1ccc(S(=O)(=O)c2cnc3ccc(SC)cc3c2N2CCCN(C)CC2)cc1OC [compound 154, 3-((3,4-dimethoxyphenyl)sulfonyl)-4-(4-methyl-1,4-diazepan-1-yl)-6-(methylthio)quinoline] gave a cytotoxicity at 40 µM [3] of 30% and a cytotoxicity at 40 µM [2] of 30%.
In the case of CCCCOc1ccc(S(=O)(=O)c2cnc3ccc([S+](C)[O-])cc3c2N2CCCN(C)CC2)cc1 (stereo not drawn) [compound 163, 3-((4-butoxyphenyl)sulfonyl)-4-(4-methyl-1,4-diazepan-1-yl)-6-(methylsulfinyl)quinoline], the cytotoxicity at 40 µM [3] is reported as 100% and the cytotoxicity at 40 µM [2] is reported as 95%.
With CCN(CC)C(=O)c1ccc2ncc(S(=O)(=O)c3ccc(OC)cc3)c(N3CCCN(C)CC3)c2c1 [compound 165, N,N-diethyl-3-((4-methoxyphenyl)sulfonyl)-4-(4-methyl-1,4-diazepan-1-yl)quinoline-6-carboxamide] the cytotoxicity at 40 µM [3] was 10% and the cytotoxicity at 40 µM [2] was 10%.
